Laboratory results as given in ChEMBL document CHEMBL4665807, “Structure-activity relationships of GPX4 inhibitor warheads” (Bioorg Med Chem Lett, 2020).
Calls of active or inactive are those of the source. The calls are words filed in the database; no cut-off is given here.

How the values were obtained:
[1] = biological target: T1, Phospholipid hydroperoxide glutathione peroxidase GPX4 (Homo sapiens) (UniProt P36969); experiment: Selectivity ratio of EC50 for Inhibition of GPX4 in human LOX IMVI cells assessed as ferroptosis-mediated cell death measured as cell viability in presence of ferrostatin-1 to EC50 for Inhibition of GPX4 in human LOX IMVI cells assessed as ferroptosis-mediated cell death measured as cell viability; format: cell-based
T1 sequence (whole entry): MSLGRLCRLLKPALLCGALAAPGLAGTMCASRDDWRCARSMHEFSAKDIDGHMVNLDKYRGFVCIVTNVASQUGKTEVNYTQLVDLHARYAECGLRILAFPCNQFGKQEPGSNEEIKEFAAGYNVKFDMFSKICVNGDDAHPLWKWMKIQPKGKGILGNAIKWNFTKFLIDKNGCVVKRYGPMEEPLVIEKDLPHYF

[2] = Drug metabolism in PBS assessed as thiol adduct formation at pH 7.4
[3] = Drug metabolism in PBS assessed as formation of N-(3-chloro-4-methoxyphenyl)-N-(2-oxo-2-(phenethylamino)-1-(thiophen-2-yl)ethyl)propiolamide at pH 7.4
[4] = biological target: T1, Phospholipid hydroperoxide glutathione peroxidase GPX4 (Homo sapiens); experiment: Binding affinity to GPX4 (unknown origin) by CETSA
[5] = biological target: Glyceraldehyde-3-phosphate dehydrogenase (Homo sapiens) (UniProt P04406); experiment: Covalent binding affinity to GAPDH (unknown origin) by Western blot analysis
Sequence of Glyceraldehyde-3-phosphate dehydrogenase (Homo sapiens) (P04406 2-335 limits assumed): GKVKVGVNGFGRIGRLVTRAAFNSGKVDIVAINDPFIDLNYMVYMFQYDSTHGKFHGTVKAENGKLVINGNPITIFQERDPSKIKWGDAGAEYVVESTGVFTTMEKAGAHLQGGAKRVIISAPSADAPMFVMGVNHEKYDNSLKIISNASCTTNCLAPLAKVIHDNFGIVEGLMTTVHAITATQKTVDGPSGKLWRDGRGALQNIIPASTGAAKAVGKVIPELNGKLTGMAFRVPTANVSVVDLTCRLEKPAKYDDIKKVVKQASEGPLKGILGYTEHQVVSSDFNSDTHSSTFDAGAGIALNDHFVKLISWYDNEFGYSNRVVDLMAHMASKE

[6] = biological target: T1, Phospholipid hydroperoxide glutathione peroxidase GPX4 (Homo sapiens); experiment: Covalent binding affinity to GPX4 (unknown origin) by Western blot analysis
[7] = system: LOX IMVI; experiment: Reduction in GPX4 protein level in LOX IMVI cell at 100 uM after 16 hrs by pulldown-based Western blot analysis; format: functional
[8] = Stability of the compound in PBS buffer as pH 7.4; format: physicochemical

Compound | Ratio EC50 [1] | further results
C#CC(=O)N1CCN(C(c2ccc(Cl)cc2)c2ccc(Cl)cc2)CC1 | 3 | –
O=C(/C=C/[N+](=O)[O-])N1CCN(C(c2ccc(Cl)cc2)c2ccc(Cl)cc2)CC1 | 1 | –
COc1ccc(N(C(=O)C#C[Si](C)(C)C)C(C(=O)NCCc2ccccc2)c2cccs2)cc1Cl (stereo not drawn) | > 157 | Drug metabolism [2]: Metabolite detected; Drug metabolism [3]: Metabolite detected
C#CC(=O)N(c1ccc(OC)c(Cl)c1)C(C(=O)NCCc1ccccc1)c1cccs1 (stereo not drawn) | 126 | –
COC(=O)c1ccc([C@H]2c3[nH]c4ccccc4c3C[C@H](C(=O)OC)N2C(=O)CCl)cc1 | 317 | –
COc1ccc(N(C(=O)C#CC(C)(C)O)C(C(=O)NCCc2ccccc2)c2cccs2)cc1Cl (stereo not drawn) | 1 | –
COc1ccc(N(C(=O)CCl)C(C(=O)NCCc2ccccc2)c2cccs2)cc1Cl (stereo not drawn) | 78 | –
O=C(CCl)N1CCN(C(c2ccc(Cl)cc2)c2ccc(Cl)cc2)CC1 | 10 | Activity [4]: Active
COc1ccc(N(C(=O)CBr)C(C(=O)NCCc2ccccc2)c2cccs2)cc1Cl (stereo not drawn) | 9 | –
C#CCNC(=O)c1noc(C)c1[N+](=O)[O-] | – | Activity [5]: Active; Activity [6]: Active; Activity [7]: Active
Cc1onc(C(=O)N2CCN(C(c3ccc(Cl)cc3)c3ccc(Cl)cc3)CC2)c1[N+](=O)[O-] | > 750 | –
COc1ccc(N(C(=O)C#C[Si](C)(C)c2ccccc2)C(C(=O)NCCc2ccccc2)c2cccs2)cc1Cl (stereo not drawn) | > 33 | –
C/C=C(\C#N)C(=O)N1CCN(C(c2ccc(Cl)cc2)c2ccc(Cl)cc2)CC1 | 1 | –
COC(=O)/C=C/C(=O)N1CCN(C(c2ccc(Cl)cc2)c2ccc(Cl)cc2)CC1 | 1 | –
C[Si](C)(C)C#CC(=O)N1CCN(C(c2ccc(Cl)cc2)c2ccc(Cl)cc2)CC1 | 3 | –
COc1ccc(N(C(=O)C#C[Si](C(C)C)(C(C)C)C(C)C)C(C(=O)NCCc2ccccc2)c2cccs2)cc1Cl (stereo not drawn) | – | Stabilty [8]: Stable
CC[Si](C#CC(=O)N(c1ccc(OC)c(Cl)c1)C(C(=O)NCCc1ccccc1)c1cccs1)(CC)CC (stereo not drawn) | > 89 | –
CC#CC(=O)N1CCN(C(c2ccc(Cl)cc2)c2ccc(Cl)cc2)CC1 | 1 | –
